Common to all, as to format: cell-based, murine
One series has as its system BV-2 cells. Description: MTT cell viability of LPS-activated BV-2 cells. The note with it: at 20 µM. As to the method: (§1) […] or MTT assay was performed as described by our previous publication with slight modification. In order to measure MTT and NO production, BV-2 cells were plated into a 96-well plate at a density of 4 × 10^4 cells/well. […] Then, nitrite (a soluble oxidation product of NO) was detected in the culture media by using the Griess reaction. The supernatant (50 µL) was collected and mixed with an equal volume of Griess reagent (1% sulfanilamide in phosphoric acid and 0.1% N-1-napthylethylenediamine dihydrochloride). The absorbance was measured at 570 nm by using a microplate reader. Sodium nitrite was used to create a standard curve from which the NO2 concentration was calculated. The cell viability was evaluated by spectrophotometrically measuring the reduction of yellow 3-[4,5-dimethylthiazol-2-yl]-2,5-diphenyltetrazolium bromide (MTT) to purple formazan crystals. MTT was dissolved in DMEM, added to the culture plate containing cells at a final concentration of 0.5 mg/mL, and incubated for 1 h. The medium containing the MTT solution was carefully removed, and 200 µL DMSO was added to each well. After solubilizing the stained cells to produce a formazan-colored solution, the optical density (OD) was measured on a microplate reader at 570 nm, and the results were expressed as a percentage of the LPS-treated group. The same plate was used for the NO and MTT assays. The cell supernatant was used for the NO assay, and the plated cells were used for the MTT assay.
(§2) The NO production and cell viability of LPS-activated BV-2 cells were measured after treatment with azine derivatives using Griess reagent and MTT assay, respectively.

Series [1] in a line: MTT cell viability of LPS-activated BV-2 cells. The note with it: mouse, LPS-activated BV-2 microglial cells; 20 µM compound; percentage of the LPS-only treatment group; mean ± standard deviation, three experiments. As to the method: as §1, §2
The test system of series [2] is N2a cells. In words: Annexin V/PI staining (FACS) of N2a cells given conditioned media from BV-2 cells. The note with it: CM of compound at each concentration tested (5, 10, 20 µM). The method, then: An annexin V/PI apoptosis kit was used in accordance with the manufacturer’s instructions to quantify the percentage of cells undergoing apoptosis. First, BV-2 cells were incubated for 24 h with 5, 10, and 20 µM of compound 3 or LPS (100 ng/mL). Then, N2a cells were treated with the supernatant of the treated BV-2 cells and incubated. After 24 h, the cells were collected, washed twice with cold PBS, and re-suspended in binding buffer at a concentration of […]. Annexin V-FITC (5 µL) and PI (10 µL) were added, and the cells were incubated for 15 min at room temperature in the dark. Following incubation, 200 µL of binding buffer was added, and the cells were immediately analyzed by flow cytometry (FACSAriaIII; BD Biosciences, Franklin Lakes, NJ, USA). The flow cytometric analysis was performed using the Cell Quest software (BD Biosciences). The annexin V+/PI− cells and annexin V−/PI+ cells were used to identify apoptotic cells and necrotic cells, respectively. The procedure was repeated three times for each sample.
Fig. 4 Neuroprotection of compound 3 in LPS-activated microglia in N2a cells. […] An annexin V/PI apoptosis kit was used to quantify the percentage of cells undergoing apoptosis and necrosis (x-axis, annexin V; y-axis, PI) by using FACS analysis. […]

In series [3] the test system is NO production in LPS-activated BV-2 cells. In words: Nitrite (Griess) assay of NO production in LPS-activated BV-2 cells. The method, then:
as §1, §2

For a further series, the system named is PGE2. In words: ELISA of PGE2 in LPS-activated BV-2 culture medium. The conditions noted are these: 5, 10 and 20 µM, LPS 24 h. The method, then:
(§3) To measure TNF-α, IL-6, and PGE2, BV-2 cells were seeded in a 24-well plate at a density of 3 × 10^5 cells/well. The cells were treated with LPS (100 ng/mL) in the presence or absence of compound 3 for 24 h, and the media was collected and centrifuged. IL-6, TNF-α, and PGE2 produced in microglial culture supernatants […] were measured by competitive enzyme immunoassay kits (R&D systems, Minneapolis, MN, USA) in accordance with the manufacturer’s protocol.
(§4) Fig. 2 Effect of compound 3 on LPS-induced iNOS and COX2 expression in BV-2 cells. BV-2 cells were pretreated with various concentrations (5, 10, and 20 µM) of compound 3 for 30 min and activated with 100 ng/mL LPS. After 6 h, the cells were collected for analysis of iNOS and COX-2 expression using western blot analysis (a–c). Similarly, LPS activation was made for 24 h as chronic BV2 activation and the iNOS and COX-2 expression was measured (d). α-Tubulin was used as the loading control. The densitometric analysis of bands was performed as described in the methods section. After 24 h, the culture medium was subsequently collected to measure the quantity of PGE2 (e), IL-6 (f), and TNF-α (g) using ELISA analysis. […]
(In an ELISA, binding on a coated surface is turned into a signal by an enzyme label.)

The test system of the next series is TNF-α. Description: ELISA of TNF-α in LPS-activated BV-2 culture medium. The conditions noted are these: 10 and 20 µM, LPS 24 h. The method, then: as §3, §4
The subject of series [4] is N2a cells. In words: Neuronal cell viability (MTT) of N2a cells given conditioned media from LPS-stimulated BV-2 cells. The note with it: Mus musculus, MTT after 24 h, read-out: N2a cell viability, % of the only LPS treated control value. As to the method: N2a cells were used as a representative neuronal cell line for the examination of apoptotic neuron viability using direct treatment of compound 3 with TNF-α activation as well as conditioned media (CM) from LPS-stimulated BV-2 cells treated with compound 3 [28]. This assay was performed following the methods described in our previous study, with slight modifications. To measure neuron viability, BV-2 cells were first seeded and treated with 100 ng/mL LPS in the presence or absence of compound 3. After 24 h, the CM was collected and transferred to N2a cells for a further 24 h. The cell viability of N2a cells was measured using the MTT assay. Well differentiated neuronal cells were used for the experimental purpose as shown in Additional file 1: Fig. S1.
Fig. 4 Neuroprotection of compound 3 in LPS-activated microglia in N2a cells. BV-2 microglial cells were pretreated with 5, 10, and 20 µM compound 3 for 30 min and stimulated with 100 ng/mL of LPS for 24 h. After 24 h of LPS treatment, the conditioned media (CM) were collected and transferred to N2a cells. After 24 h, MTT assay was done in the same CM treated N2a cells (a) and FACS analysis (b–h). An annexin V/PI apoptosis kit was used to quantify the percentage of cells undergoing apoptosis and necrosis (x-axis, annexin V; y-axis, PI) by using FACS analysis. CM-LPS treatment alone induced apoptosis and necrosis in N2a cells (g, h). […]

On to `COc1cc(/C=C/C=N/N=C/C=C/c2ccc(O)c(OC)c2)ccc1O` [Compound 3, 4,4′-(1E,1′E,3E,3′E)-3,3′-(hydrazine-1,2-diylidene)bis(prop-1-ene-1-yl-3-ylidene)bis(2-methoxyphenol)], for which the “Cytotoxicity to BV-2 cells” value with BV-2 cells was “without cytotoxicity”. Besides, the viability – broadly, a read-out of living cells in per cent, often relative to untreated cells – at 24 h, 20 µM in series [1] turned out to be 101 ± 2.53%. The “Concentration of apoptotic and necrotic N2a cells” value with N2a cells [2] is recorded as “decrease”. Further, the “LPS-induced NO production” value in series [3] (LPS-activated BV-2 cells) is recorded as “strongly inhibited”. For the same compound, the IC50 in series [3] (Mus musculus, BV-2, 100 ng/mL LPS, 24 h, Griess reaction, read-out: IC50, concentration that caused 50% inhibition of NO production in LPS-activated BV-2 cells) came to 12.5 µM. Further, in the series on PGE2, the “LPS-activated PGE2 production” value was “reduced”. Moreover, the TNF-α secretion entry in the series on TNF-α is reported as “significant reduction”. Also, the viability at 10 µM with N2a cells [4] (CM of BV-2 cells treated with 10 µM compound + LPS) came out at 199%. Also, the viability at 20 µM in the series on N2a cells [4] (CM of BV-2 cells treated with 20 µM compound + LPS) turned out to be 398%.

The values above are taken from article PMC5745756, “N,N-disubstituted azines attenuate LPS-mediated neuroinflammation in microglia and neuronal apoptosis via inhibiting MAPK signaling pathways” (BMC Neuroscience, 2017).
